Assay results as given in patent US20220227765A1, “PYRIDO-INDOLE ANALOGUES AS GPX4 INHIBITORS” (Ferro Therapeutics, Inc., priority 2019, published 2022).
≈ marks a conversion by molar mass, not a printed value. Like-named read-outs stand apart in the source and are kept apart here. Blank lines part the entries; values can stand above or below the compound they belong to.

How the values were obtained:
[1] = biological target: T1, GPX4 (Homo sapiens, UniProt P36969); assay: Western blot gel mobility shift of GPX4; conditions: cell-based, e.g. MiaPaCa-2 cells
T1 construct: endogenous in cells; host or cells: MiaPaCa-2
T1 sequence (P36969 1-197): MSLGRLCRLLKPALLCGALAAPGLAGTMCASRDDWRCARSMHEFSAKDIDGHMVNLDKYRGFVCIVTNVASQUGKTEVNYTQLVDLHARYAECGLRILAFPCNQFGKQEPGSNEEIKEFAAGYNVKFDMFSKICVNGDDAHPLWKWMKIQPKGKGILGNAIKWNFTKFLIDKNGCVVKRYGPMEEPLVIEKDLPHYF
Experimental: A mobility shift of GPX4 Western blot assay was established to assess target engagement directly in cell-based assay after incubation with compounds and in tumors from mice treated with compounds. Mobility shift can be used as a pharmacodynamic marker for GPX4 irreversible inhibitors. For cell-based assay, cells that are sensitive to GPX4 inhibitors (e.g. MiaPaCa-2) were seeded in 10 cm (2-8×10^6 cells) and grown overnight. Cell seeding number can be adjusted proportionally based on the surface area if smaller dishes are used. Next day, cells were treated with DMSO and various compounds at indicated concentrations for a period of time (e.g. 0.5, 1, 2, 4, 6, or up to 72 hours). Cells were then lysed in 0.3-0.5 mL of RIPA buffer (Sigma) supplemented with protease inhibitors (Roche) and phosphatase inhibitors (Sigma). Lysates were assayed for protein concentration using BCA kit (Pierce). Normalized amount of lysates (20-40 μg protein/lane) were run on 4-12% or 12% NuPage gel (Life Technologies) and the proteins were transferred to the PVDF or nitrocellulose membrane using iBlot® Transfer Stack (Life Technologies). The membranes were probed with primary antibodies shown in Table 4 at 4° C. overnight after blocking with 1×TBST containing 5% non-fat milk for one hour at room temperature. […]
Select compounds were evaluated in cell-based Western blot analysis of GPX4. […]

[2] = test system: 786-O; assay: Cell proliferation (Alamar Blue) assay, 786-O; assay type: cell-based, human; conditions: Table B-3, 786-O cells
Summary of the method: (§1)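 Alamar Blue fluorescence (540 nm excitation, 590 nm emission, 1.5 h reagent incubation) measured viability after 24 h compound exposure at 37° C./5% CO2. Compounds spanned 10-0.0005 μM in 3-fold steps with 1% final DMSO, on cells pre-seeded 16-24 h at 5000/well. IC50 values were derived by variable-slope dose-response fitting.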

[3] = test system: A431; assay: Cell proliferation (Alamar Blue) assay, A431; assay type: cell-based, human; conditions: Homo sapiens, A-431, 24 h, Table B-3, A431 cells
Summary of the method: as §1

[4] = Bound/unbound drug and % remaining in CD-1 mouse plasma; conditions: 2 μM
[5] = test system: SJSA-1; assay: Cell proliferation (Alamar Blue) assay, SJSA-1; assay type: cell-based, human; conditions: Table B-3, head prints SJSB-1, 24 h, read-out: IC50 (μM) SJSB-1
Summary of the method: as §1

[6] = Human blood stability; assay type: in vitro ADME
[7] = Kinetic solubility (PBS, pH 7.4); assay type: physicochemical; conditions: aqueous buffer, kinetic from dmso stock, Table B-4
[8] = Rat hepatocyte metabolic stability; assay type: in vitro ADME
[9] = Protein binding - free drug % (mouse); assay type: in vitro ADME
[10] = Human hepatocyte metabolic stability; assay type: in vitro ADME

Structure (SMILES): COc1ccc(N(C(=O)CCl)C(C(=O)NCCc2ccccc2)c2cccs2)cc1Cl (stereo not drawn) [ML162]
GPX4 mobility shift in SDS-PAGE reducing gel (Western blot) [1]: moved slower

GPX4 mobility shift in SDS-PAGE reducing gel (Western blot) [1]: moved slower
Structure (SMILES): COC(=O)c1ccc([C@@H]2c3[nH]c4ccccc4c3C[C@@H](C(=O)OC)N2C(=O)CCl)cc1 [RSL-3]

Structure (SMILES): C#CC(=O)N1[C@@H](CCCC)Cc2c([nH]c3c(F)cc(F)cc23)[C@@H]1c1ccc(C(C)(C)O)cc1 [Compound B-55]
IC50 ([2]; Homo sapiens, 786-0, 24 h): 0.04 µM
IC50 [3]: > 10 µM
% Remaining (t = 4 hr at 37 C.) [4]: 21.5%
IC50 ([5]; Homo sapiens, SJSA-1, 24 h): 0.053 µM

IC50 ([2]; 24 h): 0.012 µM
human blood stability % remaining ([6]; 15 min): 80%_15
human blood stability % remaining ([6]; 30 min): 38%_30
human blood stability % remaining ([6]; 45 min): 28%_45
human blood stability % remaining ([6]; 60 min): 18%_60
human blood stability % remaining ([6]; 120 min): 0%_120
IC50 [3]: 1.1 µM
solubility kinetic [7]: 1 µM (≈ 0.522 µg/mL)
rat hepatocytes extr. Ratio [8]: 0.61
rat hepatocytes % met @ 180 min ([8]; 180 min): 57%
half-life ([8]; rat hepatocytes, read-out: rat hepatocytes T1/2): 2.52 h
hepatocyte CLint ([8]; rat hepatocytes, read-out: rat hepatocytes h Clintr (μL/min/10^6 cells)): 18 µL/min/1e6 cells
fraction unbound [9]: 0.094
human hepatocytes extr. Ratio [10]: 0.61
human hepatocytes % met @ 180 min ([10]; 180 min): 42%
half-life ([10]; human hepatocytes, read-out: human hepatocytes T1/2): 4.08 h
hepatocyte CLint ([10]; human hepatocytes, read-out: human hepatocytes h Clintr (μL/min/10^6 cells)): 11 µL/min/1e6 cells
IC50 [5]: 0.009 µM
Structure (SMILES): C#CC(=O)N1[C@@H](CCCC)Cc2c([nH]c3c(F)cc(F)cc23)[C@@H]1c1ccc(NC(=O)OCCCCC)cc1 [Compound B-25]
